Our source for the IC50 values is US8178552B2, “7-Azaindole derivatives and their use in the inhibition of c-Jun N-terminal kinase” (Eisai R&D Management Co., Ltd., priority 2008, dated 2012).

pIC50: −log10 of the molar value.

In this test the target is JNK3 (Homo sapiens, UniProt P53779). Briefly: JNK3 SPA assay. It counts as biochemical. Conditions: 3.33 μM ATP, GST-c-Jun substrate; read-out: IC50 against JNK3. The protocol: JNK1, JNK2, JNK3—SPA Assay
Sequence of JNK3 (P53779 whole entry, species assumed): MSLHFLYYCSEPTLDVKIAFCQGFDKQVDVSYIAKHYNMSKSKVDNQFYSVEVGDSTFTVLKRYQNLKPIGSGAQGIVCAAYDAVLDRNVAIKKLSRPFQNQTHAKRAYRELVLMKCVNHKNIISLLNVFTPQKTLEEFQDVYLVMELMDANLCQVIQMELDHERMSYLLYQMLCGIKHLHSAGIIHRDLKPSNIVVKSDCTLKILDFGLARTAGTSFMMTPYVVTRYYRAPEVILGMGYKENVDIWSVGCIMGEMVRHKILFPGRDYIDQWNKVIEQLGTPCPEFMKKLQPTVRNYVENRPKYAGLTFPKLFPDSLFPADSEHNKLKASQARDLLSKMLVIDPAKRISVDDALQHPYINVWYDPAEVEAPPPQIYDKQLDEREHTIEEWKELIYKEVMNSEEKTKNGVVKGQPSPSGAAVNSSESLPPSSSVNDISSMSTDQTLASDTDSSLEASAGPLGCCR
JNK1, JNK2, JNK3—SPA Assay • 1. Compound is dissolved in DMSO to a convenient concentration and this is diluted in 10% DMSO to a five times concentrate of the desired starting concentration (frequently 1:100). • 2. 10 μl of 500 mM EDTA is added to alternative wells of the Opti-plate row, which will receive kinase reaction plus DMSO. This creates the negative control. • 3. For the JNK2 and JNK3 assay, compounds are prepared in six 2-fold dilutions with water and each concentration is tested in duplicate. For the JNK1 assay compounds are prepared in four 5-fold dilutions with water which are tested in triplicate. Controls are treated identically. • 4. 20 μl per well of each compound concentration is transferred to an Opti-plate, in duplicate. • 5. 30 μl (JNK2/3 SPA) or 50 μl (JNK1 SPA) of substrate solution (25 mM HEPES pH 7.5, 10 mM magnesium acetate with 3.33 μM ATP (JNK2/3) or 2 μM ATP (JNK1), approximately 7.5 kBq [γ-^33P] ATP, GST-c-Jun, in water) is added to each well. • 6. 50 μl (JNK2/3 SPA) or 30 μl (JNK1 SPA) of kinase solution (JNK in 25 mM HEPES pH 7.5, 10 mM Mg Acetate) is added to each well.
• 7. The plate is incubated for 30 minutes at room temperature. • 8. 100 μl of bead/stop solution is added to each well (5 mg/ml glutathione-PVT-SPA beads, 40 mM ATP in PBS). • 9. Plates are sealed and incubated for 30 minutes at room temperature, centrifuged for 10 minutes at 2500 g and counted. • 10. The IC50 values are calculated as the concentration of the compound being tested at which the phosphorylation of c-Jun is decreased to 50% of the control value.
For the molecule `C[C@H]1COCCN1[C@H]1CC[C@H](c2cnc3[nH]cc(-c4cnn(C)c4)c3c2)CC1` [Compound I-103, (S)-3-methyl-4-((1r,4S)-4-(3-(1-methyl-1H-pyrazol-4-yl)-1H-pyrrolo[2,3-b]pyridin-5-yl)cyclohexyl)morpholine], the pIC50 – broadly, −log10 of the IC50, conventionally taken in molar units – was 6.58.
`C[C@H]1COCCN1[C@H]1CC[C@@H](c2cnc3[nH]cc(-c4cnn(C)c4)c3c2)CC1` [Compound I-104, (S)-3-methyl-4-((1s,4R)-4-(3-(1-methyl-1H-pyrazol-4-yl)-1H-pyrrolo[2,3-b]pyridin-5-yl)cyclohexyl)morpholine]: the pIC50 was 6.86.
In the case of `CC(C)N[C@H]1CC[C@H](c2cnc3[nH]cc(-c4cnn(C)c4)c3c2)CC1` [Compound I-105, (1r,4r)-N-isopropyl-4-(3-(1-methyl-1H-pyrazol-4-yl)-1H-pyrrolo[2,3-b]pyridin-5-yl)cyclohexanamine], the pIC50 is 6.49.
`CCOCCN(CC)[C@H]1CC[C@H](c2cnc3[nH]cc(-c4cnn(C)c4)c3c2)CC1` [Compound I-107, (1r,4r)-N-(2-ethoxyethyl)-N-ethyl-4-(3-(1-methyl-1H-pyrazol-4-yl)-1H-pyrrolo[2,3-b]pyridin-5-yl)cyclohexanamine]: the pIC50 is 6.54.
In the case of `CCOCCN(CC)[C@H]1CC[C@@H](c2cnc3[nH]cc(-c4cnn(C)c4)c3c2)CC1` [Compound I-108, (1s,4s)-N-(2-ethoxyethyl)-N-ethyl-4-(3-(1-methyl-1H-pyrazol-4-yl)-1H-pyrrolo[2,3-b]pyridin-5-yl)cyclohexanamine], the pIC50 was 6.69.
For `CCN(C)[C@H]1CC[C@H](c2cnc3[nH]cc(-c4cnn(C)c4)c3c2)CC1` [Compound I-109, (1r,4r)-N-ethyl-N-methyl-4-(3-(1-methyl-1H-pyrazol-4-yl)-1H-pyrrolo[2,3-b]pyridin-5-yl)cyclohexanamine], the pIC50 was 6.52.
`CCN(C)[C@H]1CC[C@@H](c2cnc3[nH]cc(-c4cnn(C)c4)c3c2)CC1` [Compound I-110, (1s,4s)-N-ethyl-N-methyl-4-(3-(1-methyl-1H-pyrazol-4-yl)-1H-pyrrolo[2,3-b]pyridin-5-yl)cyclohexanamine]: the pIC50 was 6.45.
In the case of `COCCN[C@H]1CC[C@H](c2cnc3[nH]cc(-c4cnn(C)c4)c3c2)CC1` [Compound I-111, (1r,4r)-N-(2-methoxyethyl)-4-(3-(1-methyl-1H-pyrazol-4-yl)-1H-pyrrolo[2,3-b]pyridin-5-yl)cyclohexanamine], the pIC50 is 6.58.
For `CCCN(CC)[C@H]1CC[C@H](c2cnc3[nH]cc(-c4cnn(C)c4)c3c2)CC1` [Compound I-113, (1r,4r)-N-ethyl-4-(3-(1-methyl-1H-pyrazol-4-yl)-1H-pyrrolo[2,3-b]pyridin-5-yl)-N-propylcyclohexanamine] the value was 6.50; for `CCCN(CC)[C@H]1CC[C@@H](c2cnc3[nH]cc(-c4cnn(C)c4)c3c2)CC1` [Compound I-114, (1s,4s)-N-ethyl-4-(3-(1-methyl-1H-pyrazol-4-yl)-1H-pyrrolo[2,3-b]pyridin-5-yl)-N-propylcyclohexanamine], 6.65.
For `CCCN(C)[C@H]1CC[C@H](c2cnc3[nH]cc(-c4cnn(C)c4)c3c2)CC1` [Compound I-115, (1r,4r)-N-methyl-4-(3-(1-methyl-1H-pyrazol-4-yl)-1H-pyrrolo[2,3-b]pyridin-5-yl)-N-propylcyclohexanamine] the value was 6.46.
For `CCCN(C)[C@H]1CC[C@@H](c2cnc3[nH]cc(-c4cnn(C)c4)c3c2)CC1` [Compound I-116, (1s,4s)-N-methyl-4-(3-(1-methyl-1H-pyrazol-4-yl)-1H-pyrrolo[2,3-b]pyridin-5-yl)-N-propylcyclohexanamine], the pIC50 is 6.51.
For the molecule `COCCN(C)[C@H]1CC[C@H](c2cnc3[nH]cc(-c4cnn(C)c4)c3c2)CC1` [Compound I-117, (1r,4r)-N-(2-methoxyethyl)-N-methyl-4-(3-(1-methyl-1H-pyrazol-4-yl)-1H-pyrrolo[2,3-b]pyridin-5-yl)cyclohexanamine], the pIC50 was 6.54.
For `COCCN(C)[C@H]1CC[C@@H](c2cnc3[nH]cc(-c4cnn(C)c4)c3c2)CC1` [Compound I-118, (1s,4s)-N-(2-methoxyethyl)-N-methyl-4-(3-(1-methyl-1H-pyrazol-4-yl)-1H-pyrrolo[2,3-b]pyridin-5-yl)cyclohexanamine] the value was 6.59; for `CCOCCN[C@H]1CC[C@H](c2cnc3[nH]cc(-c4cnn(C)c4)c3c2)CC1` [Compound I-119, (1r,4r)-N-(2-ethoxyethyl)-4-(3-(1-methyl-1H-pyrazol-4-yl)-1H-pyrrolo[2,3-b]pyridin-5-yl)cyclohexanamine], 6.59; for `CCCN(CCOC)[C@H]1CC[C@H](c2cnc3[nH]cc(-c4cnn(C)c4)c3c2)CC1` [Compound I-121, (1r,4r)-N-(2-methoxyethyl)-4-(3-(1-methyl-1H-pyrazol-4-yl)-1H-pyrrolo[2,3-b]pyridin-5-yl)-N-propylcyclohexanamine], 6.44.
For `CCCN(CCOC)[C@H]1CC[C@@H](c2cnc3[nH]cc(-c4cnn(C)c4)c3c2)CC1` [Compound I-122, (1s,4s)-N-(2-methoxyethyl)-4-(3-(1-methyl-1H-pyrazol-4-yl)-1H-pyrrolo[2,3-b]pyridin-5-yl)-N-propylcyclohexanamine], the pIC50 was 6.53.
In the case of `CCN(CCOC)[C@H]1CC[C@H](c2cnc3[nH]cc(-c4cnn(C)c4)c3c2)CC1` [Compound I-123, (1r,4r)-N-ethyl-N-(2-methoxyethyl)-4-(3-(1-methyl-1H-pyrazol-4-yl)-1H-pyrrolo[2,3-b]pyridin-5-yl)cyclohexanamine], the pIC50 is 6.49.
As for `CCN(CCOC)[C@H]1CC[C@@H](c2cnc3[nH]cc(-c4cnn(C)c4)c3c2)CC1` [Compound I-124, (1s,4s)-N-ethyl-N-(2-methoxyethyl)-4-(3-(1-methyl-1H-pyrazol-4-yl)-1H-pyrrolo[2,3-b]pyridin-5-yl)cyclohexanamine], the pIC50 is 6.59.
The result for `CCCN(CCO)[C@H]1CC[C@H](c2cnc3[nH]cc(-c4cnn(C)c4)c3c2)CC1` [Compound I-125, 2-(((1r,4r)-4-(3-(1-methyl-1H-pyrazol-4-yl)-1H-pyrrolo[2,3-b]pyridin-5-yl)cyclohexyl)(propyl)amino)ethanol] reads 6.58.
As to `CCCN(CCO)[C@H]1CC[C@@H](c2cnc3[nH]cc(-c4cnn(C)c4)c3c2)CC1` [Compound I-126, 2-(((1s,4s)-4-(3-(1-methyl-1H-pyrazol-4-yl)-1H-pyrrolo[2,3-b]pyridin-5-yl)cyclohexyl)(propyl)amino)ethanol], the pIC50 is 6.55.
For `Cn1cc(-c2c[nH]c3ncc([C@H]4CC[C@H](NC5CCOCC5)CC4)cc23)cn1` [Compound I-127, N-((1 r,4r)-4-(3-(1-methyl-1H-pyrazol-4-yl)-1H-pyrrolo[2,3-b]pyridin-5-yl)cyclohexyl)tetrahydro-2H-pyran-4-amine] the value was 6.40; for `Cn1cc(-c2c[nH]c3ncc([C@H]4CC[C@@H](NC5CCOCC5)CC4)cc23)cn1` [Compound I-128, N-((1s,4s)-4-(3-(1-methyl-1H-pyrazol-4-yl)-1H-pyrrolo[2,3-b]pyridin-5-yl)cyclohexyl)tetrahydro-2H-pyran-4-amine], 6.10; for `Cn1cc(-c2c[nH]c3ncc([C@H]4CC[C@H](NCCO)CC4)cc23)cn1` [Compound I-129, 2-((1r,4r)-4-(3-(1-methyl-1H-pyrazol-4-yl)-1H-pyrrolo[2,3-b]pyridin-5-yl)cyclohexylamino)ethanol], 6.72.
Take `Cn1cc(-c2c[nH]c3ncc([C@H]4CC[C@@H](NCCO)CC4)cc23)cn1` [Compound I-130, 2-((1s,4s)-4-(3-(1-methyl-1H-pyrazol-4-yl)-1H-pyrrolo[2,3-b]pyridin-5-yl)cyclohexylamino)ethanol]: the pIC50 was 6.16.
For `Cn1cc(-c2c[nH]c3ncc(C4=CC5CC[C@]4(C)C5(C)C)cc23)cn1` [Compound I-138, 3-(1-methyl-1H-pyrazol-4-yl)-5-((1R)-1,7,7-trimethylbicyclo[2.2.1]hept-2-en-2-yl)-1H-pyrrolo[2,3-b]pyridine] the value was 6.83; for `Cn1cc(-c2c[nH]c3ncc(C4CC5CC4C(CO)C5CO)cc23)cn1` (centres unmarked) [Compound I-140, (5-(3-(1-methyl-1H-pyrazol-4-yl)-1H-pyrrolo[2,3-b]pyridin-5-yl)bicyclo[2.2.1]heptane-2,3-diyl)dimethanol], 7.06.
For `Cn1cc(-c2c[nH]c3ncc(C4CCCC5C4C5(C)C)cc23)cn1` (centres unmarked) [Compound I-142, 5-(7,7-dimethylbicyclo[4.1.0]heptan-2-yl)-3-(1-methyl-1H-pyrazol-4-yl)-1H-pyrrolo[2,3-b]pyridine] the value was 6.81.
For `CN1C2C=C(c3cnc4[nH]cc(-c5cnn(C)c5)c4c3)CC1CC2` (centres unmarked) [Compound I-143, 3-(1-methyl-1H-pyrazol-4-yl)-5-(8-methyl-8-azabicyclo[3.2.1]oct-3-en-3-yl)-1H-pyrrolo[2,3-b]pyridine], the pIC50 was under 6.30.
